According to patent US3933904A, “11,15-Dihydroxy-9,13-prostadienoic acid” (American Home Products Corporation, priority 1974, dated 1976):

Assays:
[1] = system: ADP induced platelet aggregation (human platelet rich plasma); test: ADP induced platelet aggregation in platelet rich plasma (modification of Born and Cross); assay type: cell-based; conditions: human PRP, in vitro; for IC50: Platelet, ADP induced (2 to 4 μM ADP), read-out: Concentration which inhibits 50% of platelet aggregation
Method: Platelet aggregation is the initial step in thrombus formation and it is considered that compounds which prevent aggregation or reduce platelet adhesiveness may inhibit the initiation of the arteriosclerotic process. The effect of drugs on aggregation is measured in platelet rich plasma (PRP) containing adenosine diphosphate (ADP) which markedly increases aggregation in vitro and may be a physiological agent for doing so in vivo.
Human blood is collected from fasted normal blood donors in siliconized 50 ml. Vacutainers that contain 3.8% sodium citrate. Centrifugation at 500 G. for 3 minutes at 5° C. separates the red blood cells from the PRP. The supernatant PRP is pipetted off and the remainder is centrifuged at 1000 G. for 10 minutes at 25° C. to obtain platelet poor plasma for standardization of the automated Payton aggregometer. In the running of the platelet aggregation test a cell containing 1.0 ml. of PRP is stirred at 1,100 rpm and the test compound is added in 0.2 ml. of buffered saline to give an initial concentration of 5 × 10^-^3 M, or 5 × 10^-^4 M. After 3 minutes, a concentration of ADP predetermined to yield marked platelet aggregation (2 to 4 μM) is added in 0.1 ml. of buffered saline. The curve of light transmission at 610 mμ is followed for 6 minutes. Compounds found to be active at the initial concentration are run at lower concentrations. The results are expressed as the concentration which gives 50% inhibition of the ADP induced aggregation.

[2] = Hypotension in the anesthetized dog, intravenous route; assay type: in vivo; conditions: dose 100 μg/kg
Method: Thus in the anesthetized dog by the intravenous route the dose to produce hypotension is from about 1 μg/kg. to about 200 μg/kg. and preferably from about 10 μg/kg. to about 100 μg/kg. Using this procedure the following results were obtained.

[3] = system: bronchoconstricting effects of a standard dose of acetylcholine; test: Bronchodilation by aerosol inhalation (method of Rosenthale et al.): inhibition of the bronchoconstricting effects of a standard dose of acetylcholine; assay type: in vivo; conditions: guinea pig
From the text: In using the compounds of the invention to produce bronchodilating effects in warm-blooded animals, they may be administered in a variety of dosage forms: oral, injectable, and aerosol inhalation. Aerosol inhalation is a preferred method because of its rapid onset of action, great potency, and specificity of action. The particular dosage to obtain the bronchodilating effect will vary with the particular compound employed, the particular animal involved, and the degree of bronchodilation desired. In the guinea pig, by aerosol inhalation, the dose to produce bronchodilation is from about 1.5 micrograms to about 100 micrograms, and preferably from about 1.5 to about 50 micrograms. The bronchodilation produced upon aerosol inhalation can be observed by the method of Rosenthale et al., J. Pharmacol. Exp. Ther., 178, 541 (1971). Using this procedure the following result was obtained.

Row | Structure (SMILES) | IC50 [1] | Inhibition of ADP induced platelet aggregation (at concentration) ([1]; at 1.5 × 10^-^6 M) | Δb.p. [2] | Percent Inhibition of the bronchoconstricting effects of a standard dose of acetylcholine ([3]; dose 1.5 μg) | Inhibition of ADP induced platelet aggregation (at concentration) ([1]; at 2.6 × 10^-^6 M) | Percent Inhibition of the bronchoconstricting effects of a standard dose of acetylcholine ([3]; dose 15 μg)
1 | CCCCC[C@H](O)/C=C/[C@H]1[C@H](O)C=C[C@@H]1CCCCCCC(=O)O [4α-hydroxy-5β-[(3S)-3-hydroxy-trans-1-octenyl]-2-cyclopentene-1α-heptanoic acid] | 1.2 µM | 63% | -34 mm. Hg | 60% |  | 
2 | CCCCC[C@H](O)/C=C/[C@H]1[C@H](O)C=C[C@@H]1C/C=C\CCCC(=O)O [7-(4α-hydroxy-5β-[(3S)-3-hydroxy-trans-1-octenyl]-2-cyclopenten-1α-yl)-cis-5-heptenoic acid] | 2.6 µM |  |  |  | 50% | 44%
